Test system: PANC-1 complex spheroid growth, percent test/control
Test: Anticancer human tumor PANC-1 cell line growth inhibition [Asc];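 note: spheroids exposed to agents for 7 days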;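 for viability, T/C: percent viability relative to DMSO vehicle wells taken as 100%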
Details: for IC50: curve of first compound; for viability, T/C: stronger effect = lower value
Method in brief: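 Complex solid-tumor spheroids incorporating human endothelial and mesenchymal stem cells received single agents or combinations over half-log dilution ranges anchored to clinical Cmax.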

[1] = second compound 0.00316 µM, first compound 0.0316 µM
[2] = second compound 0.00316 µM, first compound 0.1 µM
[3] = second compound 0.00316 µM, first compound 0.316 µM
[4] = second compound 0.00316 µM, first compound 1 µM
[5] = second compound 0.01 µM, first compound 0.0316 µM
[6] = second compound 0.01 µM, first compound 0.1 µM
[7] = second compound 0.01 µM, first compound 0.316 µM
[8] = second compound 0.01 µM, first compound 1 µM
[9] = second compound 0.0316 µM, first compound 0.0316 µM
[10] = second compound 0.0316 µM, first compound 0.1 µM
[11] = second compound 0.0316 µM, first compound 0.316 µM
[12] = second compound 0.0316 µM, first compound 1 µM
[13] = second compound 0.1 µM, first compound 0.0316 µM
[14] = second compound 0.1 µM, first compound 0.1 µM
[15] = second compound 0.1 µM, first compound 0.316 µM
[16] = second compound 0.1 µM, first compound 1 µM
[17] = second compound 0.316 µM, first compound 0.0316 µM
[18] = second compound 0.316 µM, first compound 0.1 µM
[19] = second compound 0.316 µM, first compound 0.316 µM
[20] = second compound 0.316 µM, first compound 1 µM
[21] = second compound 1 µM, first compound 0.0316 µM
[22] = second compound 1 µM, first compound 0.1 µM
[23] = second compound 1 µM, first compound 0.316 µM
[24] = second compound 1 µM, first compound 1 µM
[25] = second compound 0.00316 µM, first compound 0.00316 µM
[26] = second compound 0.00316 µM, first compound 0.01 µM
[27] = second compound 0.01 µM, first compound 0.00316 µM
[28] = second compound 0.01 µM, first compound 0.01 µM
[29] = second compound 0.0316 µM, first compound 0.00316 µM
[30] = second compound 0.0316 µM, first compound 0.01 µM
[31] = second compound 0.1 µM, first compound 0.00316 µM
[32] = second compound 0.1 µM, first compound 0.01 µM
[33] = second compound 0.316 µM, first compound 0.00316 µM
[34] = second compound 0.316 µM, first compound 0.01 µM
[35] = second compound 1 µM, first compound 0.00316 µM
[36] = second compound 1 µM, first compound 0.01 µM

C=CC(=O)N1CCN(c2nc(=O)n(-c3c(C)ccnc3C(C)C)c3nc(-c4c(O)cccc4F)c(F)cc23)C(C)C1 (stereo unspecified) + CNC(C)C(=O)NC1CN(S(=O)(=O)c2cccc(S(=O)(=O)N3CCC4CCC(C(=O)NC(c5ccccc5)c5ccccc5)N4C(=O)C(NC(=O)C(C)NC)C3)c2)CCC2CCC(C(=O)NC(c3ccccc3)c3ccccc3)N2C1=O
IC50 (second compound 0.00316 µM): > 10000 nM | IC50 (second compound 0.01 µM): > 10000 nM | IC50 (second compound 0.0316 µM): > 10000 nM | IC50 (second compound 0.1 µM): > 10000 nM | IC50 (second compound 0.316 µM): > 10000 nM | IC50 (second compound 1 µM): > 10000 nM | viability, T/C [1]: 103% | viability, T/C [2]: 88.3% | viability, T/C [3]: 103% | viability, T/C [4]: 92.3% | viability, T/C (second compound 0.00316 µM, first compound 3.16 µM): 118% | viability, T/C (second compound 0.00316 µM, first compound 10 µM): 97.5% | viability, T/C [5]: 100% | viability, T/C [6]: 92.8% | viability, T/C [7]: 102% | viability, T/C [8]: 97% | viability, T/C (second compound 0.01 µM, first compound 3.16 µM): 101% | viability, T/C (second compound 0.01 µM, first compound 10 µM): 95% | viability, T/C [9]: 91.2% | viability, T/C [10]: 94.1% | viability, T/C [11]: 102% | viability, T/C [12]: 95.8% | viability, T/C (second compound 0.0316 µM, first compound 3.16 µM): 105% | viability, T/C (second compound 0.0316 µM, first compound 10 µM): 93.3% | viability, T/C [13]: 102% | viability, T/C [14]: 96.2% | viability, T/C [15]: 100% | viability, T/C [16]: 100% | viability, T/C (second compound 0.1 µM, first compound 3.16 µM): 89.7% | viability, T/C (second compound 0.1 µM, first compound 10 µM): 88.6% | viability, T/C [17]: 98.2% | viability, T/C [18]: 92.3% | viability, T/C [19]: 112% | viability, T/C [20]: 96.4% | viability, T/C (second compound 0.316 µM, first compound 3.16 µM): 86.2% | viability, T/C (second compound 0.316 µM, first compound 10 µM): 94.2% | viability, T/C [21]: 94.7% | viability, T/C [22]: 91.2% | viability, T/C [23]: 109% | viability, T/C [24]: 94.2% | viability, T/C (second compound 1 µM, first compound 3.16 µM): 97.1% | viability, T/C (second compound 1 µM, first compound 10 µM): 96.3%

COc1c(OCCCN2CCOCC2)ccc2c3n(c(=NC(=O)c4cnc(N)nc4)nc12)CCN3 + CNC(C)C(=O)NC1CN(S(=O)(=O)c2cccc(S(=O)(=O)N3CCC4CCC(C(=O)NC(c5ccccc5)c5ccccc5)N4C(=O)C(NC(=O)C(C)NC)C3)c2)CCC2CCC(C(=O)NC(c3ccccc3)c3ccccc3)N2C1=O
IC50 (second compound 0.00316 µM): 289 nM | IC50 (second compound 0.01 µM): 225 nM | IC50 (second compound 0.0316 µM): 199 nM | IC50 (second compound 0.1 µM): 157 nM | IC50 (second compound 0.316 µM): 159 nM | IC50 (second compound 1 µM): 191 nM | viability, T/C [25]: 107% | viability, T/C [26]: 92.4% | viability, T/C [1]: 87.6% | viability, T/C [2]: 74.8% | viability, T/C [3]: 45.6% | viability, T/C [4]: 18.7% | viability, T/C [27]: 96.1% | viability, T/C [28]: 95.5% | viability, T/C [5]: 94.2% | viability, T/C [6]: 65.7% | viability, T/C [7]: 44% | viability, T/C [8]: 15.6% | viability, T/C [29]: 95.2% | viability, T/C [30]: 99.1% | viability, T/C [9]: 89.9% | viability, T/C [10]: 62.8% | viability, T/C [11]: 41.3% | viability, T/C [12]: 13.2% | viability, T/C [31]: 103% | viability, T/C [32]: 90.7% | viability, T/C [13]: 82.1% | viability, T/C [14]: 56.6% | viability, T/C [15]: 36.8% | viability, T/C [16]: 12.3% | viability, T/C [33]: 98.7% | viability, T/C [34]: 91.7% | viability, T/C [17]: 85.2% | viability, T/C [18]: 56.9% | viability, T/C [19]: 36.8% | viability, T/C [20]: 14.6% | viability, T/C [35]: 86.9% | viability, T/C [36]: 96.9% | viability, T/C [21]: 83.1% | viability, T/C [22]: 66.4% | viability, T/C [23]: 37.4% | viability, T/C [24]: 15.5%

NC1CCC(NC2CC2c2ccccc2)CC1 (stereo unspecified) + CNC(C)C(=O)NC1CN(S(=O)(=O)c2cccc(S(=O)(=O)N3CCC4CCC(C(=O)NC(c5ccccc5)c5ccccc5)N4C(=O)C(NC(=O)C(C)NC)C3)c2)CCC2CCC(C(=O)NC(c3ccccc3)c3ccccc3)N2C1=O
IC50 (second compound 0.00316 µM): > 100 nM | IC50 (second compound 0.01 µM): > 100 nM | IC50 (second compound 0.0316 µM): > 100 nM | IC50 (second compound 0.1 µM): > 100 nM | IC50 (second compound 0.316 µM): > 100 nM | IC50 (second compound 1 µM): > 100 nM | viability, T/C (second compound 0.00316 µM, first compound 0.000316 µM): 99.3% | viability, T/C (second compound 0.00316 µM, first compound 0.001 µM): 94% | viability, T/C [25]: 90% | viability, T/C [26]: 87.5% | viability, T/C [1]: 99.4% | viability, T/C [2]: 87.8% | viability, T/C (second compound 0.01 µM, first compound 0.000316 µM): 95% | viability, T/C (second compound 0.01 µM, first compound 0.001 µM): 95.9% | viability, T/C [27]: 88.5% | viability, T/C [28]: 85% | viability, T/C [5]: 93.5% | viability, T/C [6]: 94.4% | viability, T/C (second compound 0.0316 µM, first compound 0.000316 µM): 95% | viability, T/C (second compound 0.0316 µM, first compound 0.001 µM): 96.8% | viability, T/C [29]: 85.7% | viability, T/C [30]: 86.5% | viability, T/C [9]: 84.5% | viability, T/C [10]: 93.4% | viability, T/C (second compound 0.1 µM, first compound 0.000316 µM): 98.9% | viability, T/C (second compound 0.1 µM, first compound 0.001 µM): 102% | viability, T/C [31]: 96.5% | viability, T/C [32]: 93% | viability, T/C [13]: 92.8% | viability, T/C [14]: 87.8% | viability, T/C (second compound 0.316 µM, first compound 0.000316 µM): 102% | viability, T/C (second compound 0.316 µM, first compound 0.001 µM): 97.9% | viability, T/C [33]: 108% | viability, T/C [34]: 84.9% | viability, T/C [17]: 97.8% | viability, T/C [18]: 93.5% | viability, T/C (second compound 1 µM, first compound 0.000316 µM): 94.6% | viability, T/C (second compound 1 µM, first compound 0.001 µM): 76.7% | viability, T/C [35]: 99.3% | viability, T/C [36]: 85.9% | viability, T/C [21]: 90.7% | viability, T/C [22]: 92.3%

Reference: PubChem BioAssay AID1963435 (Molecular Pharmacology Branch, DTP, NCI, 2024)
